According to patent US9650339B2, “Inhibitors of histone demethylases” (Gilead Sciences, Inc., priority 2013, dated 2017):

How the values were obtained:
JJN3 = experiment: Cell proliferation assay JJN3; format: cell-based; conditions: Homo sapiens, JJN-3; JJN3, Plasma cell leukemia; method of Example 5
Protocol: (§1) MCF7 cells were seeded in multi well plates at a density optimized to give approximately 90% confluent cells at the time of harvest. Cells were incubated for 24 hours before addition of compound. Compounds were diluted in complete medium and added to the plates in duplicates. The final concentration of DMSO was maximum 0.5%. Complete medium used was DMEM with GlutaMAX containing 10% FBS and pen/strep.
(§2) 120 hours after addition of compounds, the plates were harvested and analyzed by ATPlite 1 Step (Perkin Elmer, cat no 6016739) according to the manufactures recommendation.
(§3) The assays were performed by the method of Example 5 by seeding the relevant cell line at a density optimized to give approximately 90% confluent cells at the time of harvest.

LP1 = experiment: Cell proliferation assay LP1; format: cell-based; conditions: Homo sapiens, LP-1; LP1, Myeloma; method of Example 5
Protocol: as §1, §2, §3

[1] = test system: OPM-2 subcutaneous mouse xenograft model of multiple myeloma; experiment: Inhibition of tumor growth in mouse xenograft model; format: in vivo, NOD/SCID mice (Mus Musculus)
Description: Briefly, NOD/SCID mice γ-irradiated with ^60Co (200 rad) (12 animals/group) were inoculated subcutaneously with 8×10^6 OPM-2 cells assisted with Matrigel. Dosing according to the table below started when tumors reached an average size of ˜100 mm^3 (day 15). Dosing continued until the average size of tumors in the vehicle group reached ˜2000 mm^3 (day 31).
Animals were 7 weeks old female NOD/SCID mice (Mus Musculus), supplied by Beijing HFK Bio-Technology Co. Ltd. (Beijing, china). Body weight was approx. 16-23 g. Before commencement of treatment, all animals were weighed and tumor volumes were measured, and mice were assigned into groups using randomized block design based upon their tumor volumes.
OPM-2 tumor cells were maintained in vitro in RPMI1640 medium supplemented with 20% fetal bovine serum at 37° C. in an atmosphere of 5% CO2 in air. The tumor cells were routinely subcultured twice weekly. The cells growing in an exponential growth phase were harvested and counted for tumor inoculation.
Tumor sizes were measured three times weekly in two dimensions using a caliper, and the volume was expressed in mm^3 using the formula: V=0.5 a×b^2 where a and b were the long and short diameters of the tumor, respectively.

SK MM2 = experiment: Cell proliferation assay SK MM2; format: cell-based; conditions: Homo sapiens, SK-MM-2; SK MM2, Plasma cell leukemia; method of Example 5
Protocol: as §1, §2, §3

OVCAR-3 = experiment: Cell proliferation assay OVCAR-3; format: cell-based; conditions: Homo sapiens; OVCAR-3, Ovary; method of Example 5
Protocol: as §1, §2, §3

A375 = experiment: Cell proliferation assay A375; format: cell-based; conditions: Homo sapiens, A-375; A375, Melanoma; method of Example 5
Protocol: as §1, §2, §3

KMS 12 BM = experiment: Cell proliferation assay KMS 12 BM; format: cell-based; conditions: Homo sapiens, Myeloma, method of Example 5
Protocol: as §1, §2, §3

## CCN(CC)CCCCNCc1cc(/C=N/CCO)ccn1 [Compound 61, 2-[{[2-({[4-(diethylamino)-butyl]amino}-methyl)pyridin-4-yl]methylidene}-amino]ethan-1-ol]
JJN3
  EC50: > 2500 nM
LP1
  EC50: > 2500 nM
[1]; BID × 14 i.p. 1 mg/kg, day 15 after inoculation (start of dosing)
  Tumor Volume: 101 ± 12 mm^3
[1]; BID × 14 i.p. 1 mg/kg, day 17 after inoculation
  Tumor Volume: 249 ± 32 mm^3
[1]; BID × 14 i.p. 1 mg/kg, day 19 after inoculation
  Tumor Volume: 320 ± 45 mm^3
[1]; BID × 14 i.p. 1 mg/kg, day 21 after inoculation
  Tumor Volume: 577 ± 85 mm^3
[1]; BID × 14 i.p. 1 mg/kg, day 24 after inoculation
  Tumor Volume: 951 ± 124 mm^3
[1]; BID × 14 i.p. 1 mg/kg, day 26 after inoculation
  Tumor Volume: 1259 ± 169 mm^3
[1]; BID × 14 i.p. 1 mg/kg, day 28 after inoculation
  Tumor Volume: 1800 ± 202 mm^3
[1]; BID × 14 i.p. 1 mg/kg, day 31 after inoculation
  Tumor Volume: 2864 ± 334 mm^3
[1]; BID × 14 i.p. 10 mg/kg, day 15 after inoculation (start of dosing)
  Tumor Volume: 101 ± 11 mm^3
[1]; BID × 14 i.p. 10 mg/kg, day 17 after inoculation
  Tumor Volume: 198 ± 28 mm^3
[1]; BID × 14 i.p. 10 mg/kg, day 19 after inoculation
  Tumor Volume: 276 ± 44 mm^3
[1]; BID × 14 i.p. 10 mg/kg, day 21 after inoculation
  Tumor Volume: 519 ± 67 mm^3
[1]; BID × 14 i.p. 10 mg/kg, day 24 after inoculation
  Tumor Volume: 694 ± 92 mm^3
[1]; BID × 14 i.p. 10 mg/kg, day 26 after inoculation
  Tumor Volume: 928 ± 136 mm^3
[1]; BID × 14 i.p. 10 mg/kg, day 28 after inoculation
  Tumor Volume: 1289 ± 178 mm^3
[1]; BID × 14 i.p. 10 mg/kg, day 31 after inoculation
  Tumor Volume: 1996 ± 302 mm^3
[1]; BID × 14 i.p. 20 mg/kg, day 15 after inoculation (start of dosing)
  Tumor Volume: 101 ± 12 mm^3
[1]; BID × 14 i.p. 20 mg/kg, day 17 after inoculation
  Tumor Volume: 188 ± 25 mm^3
[1]; BID × 14 i.p. 20 mg/kg, day 19 after inoculation
  Tumor Volume: 292 ± 50 mm^3
[1]; BID × 14 i.p. 20 mg/kg, day 21 after inoculation
  Tumor Volume: 440 ± 77 mm^3
[1]; BID × 14 i.p. 20 mg/kg, day 24 after inoculation
  Tumor Volume: 766 ± 143 mm^3
[1]; BID × 14 i.p. 20 mg/kg, day 26 after inoculation
  Tumor Volume: 1029 ± 196 mm^3
[1]; BID × 14 i.p. 20 mg/kg, day 28 after inoculation
  Tumor Volume: 1298 ± 236 mm^3
[1]; BID × 14 i.p. 20 mg/kg, day 31 after inoculation
  Tumor Volume: 1573 ± 261 mm^3
SK MM2
  EC50: 250 to 2500 nM

## CCN(CCN(C)C)C(=O)CNCc1cc(CNC(=O)C(F)(F)F)ccn1 [Compound 25, N-[(2-{[({[2-(dimethylamino)ethyl]-(ethyl)carbamoyl}-methyl)amino]methyl}-pyrtdin-4-yl)methyl]-2,2,2-trifluoroacetamide]
OVCAR-3
  EC50: > 2500 nM
A375
  EC50: 250 to 2500 nM
KMS 12 BM
  EC50: < 250 nM
